According to US20240294522A1 (Lead Discovery Center GmbH, priority 2021, published 2024):

How the values were obtained:
GRK2 = molecular target: T1, GRK2 (Homo sapiens, UniProt P25098); test: Lance Kinase Activity Assay, GRK2; details: biochemical Lance kinase activity assay; class symbols A-F; read-out: GRK2 LANCE Assay (IC-50)
T1 construct: purchased Thermo Scientific
T1 sequence (P25098 1-689): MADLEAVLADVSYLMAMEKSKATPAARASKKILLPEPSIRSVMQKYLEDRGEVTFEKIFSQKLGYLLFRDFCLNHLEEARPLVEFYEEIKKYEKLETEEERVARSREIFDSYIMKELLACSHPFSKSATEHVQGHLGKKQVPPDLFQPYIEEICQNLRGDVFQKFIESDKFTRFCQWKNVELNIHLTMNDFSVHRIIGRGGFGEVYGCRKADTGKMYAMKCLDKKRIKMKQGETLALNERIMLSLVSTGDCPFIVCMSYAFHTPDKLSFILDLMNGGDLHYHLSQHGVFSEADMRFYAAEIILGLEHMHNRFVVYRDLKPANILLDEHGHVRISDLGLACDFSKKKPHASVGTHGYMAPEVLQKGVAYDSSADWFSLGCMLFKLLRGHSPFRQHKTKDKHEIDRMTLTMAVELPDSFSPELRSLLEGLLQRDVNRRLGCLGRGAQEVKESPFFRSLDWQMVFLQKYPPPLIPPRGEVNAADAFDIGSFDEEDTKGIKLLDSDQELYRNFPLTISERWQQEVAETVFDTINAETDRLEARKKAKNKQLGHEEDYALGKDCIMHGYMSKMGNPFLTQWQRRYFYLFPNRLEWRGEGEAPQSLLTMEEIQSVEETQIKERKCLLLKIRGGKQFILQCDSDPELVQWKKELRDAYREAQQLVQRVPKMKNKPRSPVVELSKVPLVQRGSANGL
Description: (§1) This protocol describes how the Lance Kinase Activity Assay was performed to determine IC50 values of compounds of general formula (I) against GRK5 and GRK2.
(§2) The principle behind this enzymatic assay is based upon the phosphorylation of the Ulight-peptide substrate. It is detected by using a specific EU-labeled anti-phospho peptide antibody. The binding of the Eu labeled anti-phospho peptide antibody to the phosphorylated ULight labeled peptide gives rise to a FRET-signal. Binding of an inhibitor to the kinase prevents phosphorylation of the Ulight-substrate, resulting in a loss of FRET. In tables 2 and 3 the relevant information for these two LANCE assays is summarized.
(§3) For every sample, 2 μl of assay buffer (50 mM HEPES pH 7,5, 10 mM MgCL2, 1 mM EGTA 0,01% Tween 20, 1% DMSO, 2 mM DTT) were transferred into a suitable assay plate (e.g. Corning #3673). Compounds were added in a concentration range from 10 μM to 0.0025 μM using an acoustic dispenser (Echo520 from Labcycte, San Jose, USA) equipped with Echo Dose Response software. After that 6 μl of kinase-substrate mix was added. Reaction was started by addition of 2 μl ATP working solution and mixed using a Bioshake 5000 microplate shaker (Q Instruments, Jena, Germany).
(§4) After 1 h incubation at room temperature the reaction was stopped with 10 μl detection mix containing the Eu-labeled phosphospecific antibody and 10 mM EDTA. After a second incubation period of 1 h at room temperature the FRET signal was measured at 340 nm excitation, 665 nm and 615 nm emission (for the ULight-substrate and Eu-AB, respectively) with an Envision microplate reader (Perkin Elmer, Waltham, MA, USA) with 50 μs delay and 300 μs integration time. IC50 values were determined from the sigmoidal dose response curves with the software Quattro Workflow (Quattro GmbH, Munich, Germany).
(§5) Inhibition is indicated as IC50 [nM] (“−”=not measured). Compounds having an activity designated as “A” provided an IC50≤50 nM; compounds having an activity designated as “B” provided an 50 nM<IC50≤100 nM; compounds having an activity designated as “C” provided an 100 nM<IC50≤500 nM; compounds having an activity designated as “D” provided an 500 nM<IC50≤1000 nM; compounds having an activity designated as “E” provided an 1000 nM<IC50≤10000 nM; and compounds having an activity designated as “F” provided an IC50>10000 nM.

GRK5 = molecular target: T2, GRK5 (Homo sapiens, UniProt P34947); test: Lance Kinase Activity Assay, GRK5; details: biochemical Lance kinase activity assay; class symbols A-F; read-out: GRK5 LANCE Assay (IC-50)
T2 construct: purchased Thermo Scientific
Description: as §1, §2, §3, §4, §5

T2 sequence (P34947 whole entry): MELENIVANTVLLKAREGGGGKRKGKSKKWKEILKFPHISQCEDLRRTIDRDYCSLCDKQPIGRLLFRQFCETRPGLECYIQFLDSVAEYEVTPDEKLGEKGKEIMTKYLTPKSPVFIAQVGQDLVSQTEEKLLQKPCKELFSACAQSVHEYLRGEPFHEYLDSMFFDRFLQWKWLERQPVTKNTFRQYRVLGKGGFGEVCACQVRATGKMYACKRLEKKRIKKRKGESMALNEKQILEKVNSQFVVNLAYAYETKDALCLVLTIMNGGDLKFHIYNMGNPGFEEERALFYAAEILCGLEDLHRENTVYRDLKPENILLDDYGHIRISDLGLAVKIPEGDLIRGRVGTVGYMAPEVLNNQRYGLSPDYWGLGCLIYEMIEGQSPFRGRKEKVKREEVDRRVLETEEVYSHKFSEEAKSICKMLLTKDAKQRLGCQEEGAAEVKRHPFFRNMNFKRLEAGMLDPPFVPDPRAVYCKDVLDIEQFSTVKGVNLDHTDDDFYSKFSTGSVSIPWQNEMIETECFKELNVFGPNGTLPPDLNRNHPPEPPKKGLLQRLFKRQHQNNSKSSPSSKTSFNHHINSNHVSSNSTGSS

Structure (SMILES)	IC50 (GRK2) [nM]	IC50 (GRK5) [nM]
COc1ccc([C@@H](C)NC(=O)/C(C#N)=C/c2c[nH]c3ncc(-c4cccc(OCCCN(C)C)c4)cc23)cc1OC [Example 133]	1000 to 10000	1000 to 10000
COc1ccc([C@@H](C)NC(=O)/C(C#N)=C/c2c[nH]c3ncc(-c4cnn(C5CCN(C(=O)OC(C)(C)C)CC5)c4)cc23)cc1OC [Example 165]	1000 to 10000	50 to 100
COc1ccc(CNC(=O)/C(C#N)=C/c2c[nH]c3ncccc23)cc1S(N)(=O)=O [Example 36, (E)-2-cyano-N-(4-methoxy-3-sulfamoylbenzyl)-3-(1H-pyrrolo[2,3-b]pyridin-3-yl)acrylamide]	1000 to 10000	100 to 500
COc1cc(C(C)NC(=O)/C=C/c2c[nH]c3ncc(-c4cnn(C)c4)cc23)cnc1OC (stereo not drawn) [Example 265, (E)-N-(1-(5,6-dimethoxypyridin-3-yl)ethyl)-3-(5-(1-methyl-1H-pyrazol-4-yl)-1H-pyrrolo[2,3-b]pyridin-3-yl)acrylamide]	> 10000	50 to 100
COc1ccc([C@@H](C)NC(=O)/C(C#N)=C/c2c[nH]c3ncc(-c4ccc5nc(C)cn5c4)cc23)cc1OC [Example 162]	1000 to 10000	≤ 50
CN(C)CCC(NC(=O)/C(C#N)=C/c1c[nH]c2ncccc12)c1ccccc1 (stereo not drawn) [Example 48, (E)-2-cyano-N-(3-(dimethylamino)-1-phenylpropyl)-3-(1H-pyrrolo[2,3-b]pyridin-3-yl)acrylamide]	50 to 100	≤ 50
COc1ccc([C@@H](C)NC(=O)/C=C/c2c[nH]c3ncc(-c4ccc(NS(C)(=O)=O)cc4)cc23)cc1OC [Example 187]	1000 to 10000	≤ 50
COc1ccc([C@@H](C)NC(=O)/C=C/c2c[nH]c3ncc(-c4cccc(C#N)c4)cc23)cc1OC [Example 221, (R,E)-3-(5-(3-cyanophenyl)-1H-pyrrolo[2,3-b]pyridin-3-yl)-N-(1-(3,4-dimethoxyphenyl)ethyl)acrylamide]	> 10000	≤ 50
C[C@@H](NC(=O)/C(C#N)=C/c1c[nH]c2ncc(Br)cc12)c1ccc(F)cc1 [Example 79, (R,E)-3-(5-bromo-1H-pyrrolo[2,3-b]pyridin-3-yl)-2-cyano-N-(1-(4-fluorophenyl)ethyl)acrylamide]	1000 to 10000	100 to 500
N#C/C(=C\c1c[nH]c2ncc(Cl)cc12)C(=O)NCc1ccccc1 [Example 73, (E)-N-benzyl-3-(5-chloro-1H-pyrrolo[2,3-b]pyridin-3-yl)-2-cyanoacrylamide]	1000 to 10000	1000 to 10000
N#C/C(=C\c1c[nH]c2ncccc12)C(=O)NCc1ccc(F)cc1F [Example 65, (E)-2-cyano-N-(2,4-difluorobenzyl)-3-(1H-pyrrolo[2,3-b]pyridin-3-yl)acrylamide]	1000 to 10000	1000 to 10000
O=C(/C=C/c1c[nH]c2ncc(Cl)cc12)NCc1cccc(F)c1 [Example 7, (E)-3-(5-chloro-1H-pyrrolo[2,3-b]pyridin-3-yl)-N-(3-fluorobenzyl)acrylamide]	1000 to 10000	100 to 500
COc1ccc([C@@H](C)NC(=O)/C(C#N)=C/c2c[nH]c3ncc(-c4cccc(OCCN(C)C)c4)cc23)cc1OC [Example 152]	1000 to 10000	≤ 50
Cc1c(-c2cnn(C)c2)cnc2[nH]cc(/C=C(\C#N)C(=O)N[C@H](C)c3ccccc3)c12 [Example 97, (R,E)-2-cyano-3-(4-methyl-5-(1-methyl-1H-pyrazol-4-yl)-1H-pyrrolo[2,3-b]pyridin-3-yl)-N-(1-phenylethyl)acrylamide]	500 to 1000	500 to 1000
COc1ccc([C@@H](C)NC(=O)/C=C/c2c[nH]c3ncc(-c4cccc(OCCCN(C)C)c4)cc23)cc1OC [Example 188]	500 to 1000	≤ 50

Other lines, results leading:

IC50 (GRK2) [nM]	IC50 (GRK5) [nM]	Structure (SMILES)
1000 to 10000	≤ 50	COc1ccc([C@@H](C)NC(=O)/C(C#N)=C/c2c[nH]c3ncc(O)cc23)cc1OC [Example 81, (R,E)-2-cyano-N-(1-(3,4-dimethoxyphenyl)ethyl)-3-(5-hydroxy-1H-pyrrolo[2,3-b]pyridin-3-yl)acrylamide]
1000 to 10000	≤ 50	COc1ccc([C@@H](C)NC(=O)/C(C#N)=C/c2c[nH]c3ncc(-c4ccncc4)cc23)cc1OC [Example 143]
100 to 500	100 to 500	N#C/C(=C\c1c[nH]c2ncccc12)C(=O)NCc1ccc(F)c(F)c1 [Example 66, (E)-2-cyano-N-(3,4-difluorobenzyl)-3-(1H-pyrrolo[2,3-b]pyridin-3-yl)acrylamide]
1000 to 10000	50 to 100	COc1ccc([C@@H](C)NC(=O)/C(C#N)=C/c2c[nH]c3ncccc23)cc1OC [Example 15, (R,E)-2-cyano-N-(1-(3,4-dimethoxyphenyl)ethyl)-3-(1H-pyrrolo[2,3-b]pyridin-3-yl)acrylamide]
100 to 500	≤ 50	COc1ccc([C@@H](C)NC(=O)/C=C/c2c[nH]c3ncc(-c4ccc(C5CCN(C)CC5)cc4)cc23)cc1OC [Example 196, (R,E)-N-(1-(3,4-dimethoxyphenyl)ethyl)-3-(5-(4-(1-methylpiperidin-4-yl)phenyl)-1H-pyrrolo[2,3-b]pyridin-3-yl)acrylamide]
1000 to 10000	≤ 50	COc1ccc([C@@H](C)NC(=O)/C=C/c2c[nH]c3nccc(-c4ccc(OCCN(C)C)cc4)c23)cc1OC [Example 230, (R,E)-N-(1-(3,4-dimethoxyphenyl)ethyl)-3-(4-(4-(2-(dimethylamino)ethoxy)phenyl)-1H-pyrrolo[2,3-b]pyridin-3-yl)acrylamide]
> 10000	≤ 50	Cc1nn(C)c2cc([C@@H](C)NC(=O)/C(C#N)=C/c3c[nH]c4ncc(-c5cnn(C)c5)cc34)ccc12 [Example 261, (R,E)-2-cyano-N-(1-(1,3-dimethyl-1H-indazol-6-yl)ethyl)-3-(5-(1-methyl-1H-pyrazol-4-yl)-1H-pyrrolo[2,3-b]pyridin-3-yl)acrylamide]
> 10000	≤ 50	COc1ccc([C@@H](C)NC(=O)/C(C#N)=C/c2c[nH]c3ncc(-c4cccc(NS(C)(=O)=O)c4)cc23)cc1OC [Example 151, (R,E)-2-cyano-N-(1-(3,4-dimethoxyphenyl)ethyl)-3-(5-(3-(methylsulfonamido)phenyl)-1H-pyrrolo[2,3-b]pyridin-3-yl)acrylamide]
> 10000	100 to 500	COc1ccc([C@@H](C)NC(=O)/C(C#N)=C/c2c[nH]c3ncc(C(=O)N4CCOCC4)cc23)cc1OC [Example 82]
500 to 1000	500 to 1000	Cc1c(-c2cnn(C)c2)cnc2[nH]cc(/C=C(\C#N)C(=O)N[C@H](C)c3ccc(F)cc3)c12 [Example 98, (R,E)-2-cyano-N-(1-(4-fluorophenyl)ethyl)-3-(4-methyl-5-(1-methyl-1H-pyrazol-4-yl)-1H-pyrrolo[2,3-b]pyridin-3-yl)acrylamide]
500 to 1000	100 to 500	C[C@@H](NC(=O)/C(C#N)=C/c1c[nH]c2ncccc12)c1ccccc1Cl [Example 12, (R,E)-N-(1-(2-chlorophenyl)ethyl)-2-cyano-3-(1H-pyrrolo[2,3-b]pyridin-3-yl)acrylamide]
1000 to 10000	≤ 50	COc1ccc([C@@H](C)NC(=O)/C=C/c2c[nH]c3ncc(-c4cccc(CNC(C)=O)c4)cc23)cc1OC [Example 203, (R,E)-3-(5-(3-(acetamidomethyl)phenyl)-1H-pyrrolo[2,3-b]pyridin-3-yl)-N-(1-(3,4-dimethoxyphenyl)ethyl)acrylamide]
